Patent publication US20230002324A1, “NAPHTHOQUINONE DERIVATIVES FOR TREATMENT OF OXIDATIVE STRESS DISORDERS” (PTC THERAPEUTICS, INC., priority 2019, published 2023)

test system: Q7 cells (ST HDH Q7/7; immortalized mouse striatal cells); assay: Q7 Cystine Deprivation cell survival (rescue) assay; assay type: cell-based; settings: 18 h, read-out: Q7 Cystine Deprivation Survival EC50
Text: In neuronal cells excess extracellular glutamate inhibits the cystine/glutamate antiporter leading to intracellular cysteine depletion, GSH depletion, reactive oxygen species (ROS) production and cell death, a phenomenon termed oxidative glutamate toxicity, oxytosis, or ferroptosis. […] Q7 cells (ST HDH Q7/7; immortalized mouse striatal cells) challenged with cystine-free media or the selective, irreversible GPX4 inhibitor, methyl (1S,3R)-2-(2-chloroacetyl)-1-(4-(methoxycarbonyl)phenyl)-2,3,4,9-tetrahydro-1H-pyrido[3,4-b]indole-3-carboxylate (hereafter referred to as RSL3), recapitulate this phenotype, as do normal human fibroblasts (NHF) challenged with RSL3. An initial screen was performed to identify compounds effective in rescuing Q7 and/or NHF cells from death resulting from cystine deprivation or RSL3 challenge. This method is further described in Yonezawa et al., J. Neurochem 67, 566-573 (1996), Li et al., J Neurosci., 23, 5816-5826 (2003), Yang and Stockwell, Chem Biol., 15: 234-45 (2008), and Yang et al., Cell 156, 317-331 (2014). See also Hinman A, Holst C R, Latham J C, et al. Vitamin E hydroquinone is an endogenous regulator of ferroptosis via redox control of 15-lipoxygenase. PLoS One. 2018; 13(8):e0201369. Published 2018 Aug. 15. doi:10.1371/journal.pone.0201369; and Kahn-Kirby A H, Amagata A, Maeder C I, et al. Targeting ferroptosis: A novel therapeutic strategy for the treatment of mitochondrial disease-related epilepsy. PLoS One. 2019; 14(3):e0214250. Published 2019 Mar. 28. doi:10.1371/journal.pone.0214250.
DMEM (Catalog no. 11995-040), DMEM without Cystine (Catalog no. 21013-024), DMEM without Glucose (Catalog A1443001), PBS (Phosphate buffered saline), Penicillin-streptomycin mix, L-Glutamine, Glucose, Phenol Red, and Pyruvate were purchased from ThermoFisher Scientific (Gibco). Fetal Bovine Serum was obtained from Mediatech, Inc., or Sigma Aldrich. Mouse striatum derived ST HDH Q7/7 (Q7) and normal human skin fibroblast (NHF, product number GM21811) cells were obtained from the Coriell Institute. Methionine and Vitamin K2 were purchased from Sigma Aldrich. RSL3 was synthesized as previously described (see e.g. US Patent Publication US2010/0081654). Cell Titer Glo 2.0 was purchased from Promega. Q7 cell culture medium (Q7 growth medium) was made by combining 50 mL Fetal Bovine Serum, 100 U/mL penicillin, and 100 microgram/mL streptomycin; DMEM was added to make the volume up to 500 mL. Assay medium for the Cystine Deprivation assay was prepared by combining 50 mL Fetal Bovine Serum, 100 U/mL penicillin, 100 microgram/mL streptomycin, 4 mM L-Glutamine, 1 mM Pyruvate and 30 mg/L Methionine; DMEM without Cystine was added to make the volume up to 500 mL. NHF cell culture medium (NHF growth medium) was made by combining 50 mL Fetal Bovine Serum, 100 U/mL penicillin, 100 microgram/mL streptomycin, 2.8 mL 20% Glucose solution (final concentration 6 mM), L-glutamine (final concentration 2 mM), phenol red (final concentration 15 mg/L); DMEM without Glucose was added to make the volume up to 500 mL. Assay medium for the RSL3 challenge assay was identical to Growth medium. While not in use during the course of the experiments, these solutions were stored at 4° C. The cells were grown in 150-cm^2 tissue culture-treated flasks. Every third or fourth day, the cells were sub-cultured by trypsinization and re-seeded at a cell density of 600,000 (Q7) or 300,000 (NHF) cells per flask.
Q7 or NHF cells were cultured routinely as described herein. For 384-well cell survival assays, cells were seeded in clear bottom, black wall 384-well tissue culture-treated polystyrene plates by re-suspending a cell suspension at a density of 50,000 cells/mL in growth medium, then dispensing 60 microliters of cell suspension per well using either an electronic multichannel pipette or a Multidrop™ Combi Reagent Dispenser (ThermoFisher Scientific), corresponding to 3,000 cells/well. […]

Row | Structure (SMILES) | EC50
1 | COc1cc2c(cc1OC)C(=O)C(Cc1ccc(C(F)(F)F)cn1)=C(C)C2=O [Example 41, 6,7-dimethoxy-2-methyl-3-((5-(trifluoromethyl)pyridin-2-yl)methyl)naphthalene-1,4-dione] | < 0.05 µM

same assay, conditions: Q7 cells, cystine-free medium, 18 h, Cell Titer Glo, 50% relative viability vs Vitamin K2 (1 micromolar), read-out: Q7 Cystine Deprivation Survival EC50

Row | Structure (SMILES) | EC50
2 | CC1=C(Cc2ccc(C(N)=O)nn2)C(=O)c2ccccc2C1=O [Example 14, 6-((3-methyl-1,4-dioxo-1,4-dihydronaphthalen-2-yl)methyl)pyridazine-3-carboxamide] | < 0.05 µM
3 | CC1=C(Cc2cc(C(F)(F)F)c(F)cn2)C(=O)c2ccccc2C1=O [Example 2, 2-((5-fluoro-4-(trifluoromethyl)pyridin-2-yl)methyl)-3-methylnaphthalene-1,4-dione] | < 0.05 µM
4 | CC1=C(Cc2cccnn2)C(=O)c2ccccc2C1=O [Example 12, 2-methyl-3-(pyridazin-3-ylmethyl)naphthalene-1,4-dione] | < 0.05 µM
5 | O=C1C(CCC2COC2)=C(Cc2ccc(F)cn2)C(=O)c2ccccc21 [Example 121, 2-((5-fluoropyridin-2-yl)methyl)-3-(2-(oxetan-3-yl)ethyl)naphthalene-1,4-dione] | < 0.05 µM
6 | CCCC1=C(Cc2ccc(Cl)cn2)C(=O)c2ccccc2C1=O [Example 106, 2-((5-chloropyridin-2-yl)methyl)-3-propylnaphthalene-1,4-dione] | < 0.05 µM
7 | CC1=C(Cc2cccc(C(F)(F)F)n2)C(=O)c2ccccc2C1=O [Example 8, 2-methyl-3-((6-(trifluoromethyl)pyridin-2-yl)methyl)naphthalene-1,4-dione] | < 0.05 µM
8 | O=C1C=C(Cc2ccc(C(F)(F)F)cn2)C(=O)c2ccccc21 [Example 25, 2-((5-(trifluoromethyl)pyridin-2-yl)methyl)naphthalene-1,4-dione] | 0.25 to 1 µM
9 | CCCC1=C(Cc2ccc(F)c(C#N)n2)C(=O)c2ccccc2C1=O [Example 112, 6-((1,4-dioxo-3-propyl-1,4-dihydronaphthalen-2-yl)methyl)-3-fluoropicolinonitrile] | < 0.05 µM
10 | CC1=C(Cc2ccc(C(F)(F)F)nn2)C(=O)c2ccccc2C1=O [Example 10, 2-methyl-3-((6-(trifluoromethyl)pyridazin-3-yl)methyl)naphthalene-1,4-dione] | < 0.05 µM
11 | CC1=C(Cc2cc(C)c(F)cn2)C(=O)c2ccccc2C1=O [Example 3, 2-((5-fluoro-4-methylpyridin-2-yl)methyl)-3-methylnaphthalene-1,4-dione] | < 0.05 µM
12 | CC1=C(Cc2cc(C)cnn2)C(=O)c2ccccc2C1=O [Example 15, 2-methyl-3-((5-methylpyridazin-3-yl)methyl)naphthalene-1,4-dione] | < 0.05 µM
13 | CC1=C(Cc2cc(C(F)(F)F)cnn2)C(=O)c2ccccc2C1=O [Example 11, 2-methyl-3-((5-(trifluoromethyl)pyridazin-3-yl)methyl)naphthalene-1,4-dione] | < 0.05 µM
14 | COc1ccc2c(c1)C(=O)C(C)=C(Cc1ccc(C(F)(F)F)cn1)C2=O [Example 37, 6-methoxy-3-methyl-2-((5-(trifluoromethyl)pyridin-2-yl)methyl)naphthalene-1,4-dione] | < 0.05 µM
15 | CC1=C(Cc2ccc(C)cn2)C(=O)c2ccccc2C1=O [Example 7, 2-methyl-3-((5-methylpyridin-2-yl)methyl)naphthalene-1,4-dione] | < 0.05 µM
16 | COc1cccc2c1C(=O)C(C)=C(Cc1ccc(C(F)(F)F)cn1)C2=O [Example 40, 5-methoxy-3-methyl-2-((5-(trifluoromethyl)pyridin-2-yl)methyl)naphthalene-1,4-dione] | < 0.05 µM
17 | CCCC1=C(Cc2ncc(C(F)(F)F)cc2F)C(=O)c2ccccc2C1=O [Example 108, 2-((3-fluoro-5-(trifluoromethyl)pyridin-2-yl)methyl)-3-propylnaphthalene-1,4-dione] | 0.05 to 0.25 µM

Row | Structure (SMILES) | EC50
18 | CCCC1=C(Cc2ncc(F)cc2C)C(=O)c2ccccc2C1=O [Example 111, 2-((5-fluoro-3-methylpyridin-2-yl)methyl)-3-propylnaphthalene-1,4-dione] | 0.05 to 0.25 µM
19 | CCOc1cnnc(CC2=C(C)C(=O)c3ccccc3C2=O)c1 [Example 16, 2-((5-ethoxypyridazin-3-yl)methyl)-3-methylnaphthalene-1,4-dione] | < 0.05 µM
20 | CC1=C(Cc2cc(C)c(C(F)(F)F)cn2)C(=O)c2ccccc2C1=O [Example 4, 2-methyl-3-((4-methyl-5-(trifluoromethyl)pyridin-2-yl)methyl)naphthalene-1,4-dione] | < 0.05 µM
21 | CC1=C(Cc2ccc(C(F)(F)F)cn2)C(=O)c2cccc(F)c2C1=O [Example 46, 5-fluoro-3-methyl-2-((5-(trifluoromethyl)pyridin-2-yl)methyl)naphthalene-1,4-dione] | < 0.05 µM
22 | CCCC1=C(Cc2ncc(F)cc2F)C(=O)c2ccccc2C1=O [Example 117, 2-((3,5-difluoropyridin-2-yl)methyl)-3-propylnaphthalene-1,4-dione] | < 0.05 µM
23 | O=C1C(O)=C(Cc2ccc(C(F)(F)F)cn2)C(=O)c2ccccc21 [Example 125, 2-hydroxy-3-((5-(trifluoromethyl)pyridin-2-yl)methyl)naphthalene-1,4-dione] | > 1 µM
24 | Cc1ccc(CC2=C(C3CC3)C(=O)c3ccccc3C2=O)nc1 [Example 38, 2-cyclopropyl-3-((5-methylpyridin-2-yl)methyl)naphthalene-1,4-dione] | < 0.05 µM
25 | CC(C)CCC1=C(Cc2ccc(C(F)(F)F)cn2)C(=O)c2ccccc2C1=O [Example 34, 2-isopentyl-3-((5-(trifluoromethyl)pyridin-2-yl)methyl)naphthalene-1,4-dione] | 0.05 to 0.25 µM
26 | COC(C1=C(C)C(=O)c2ccccc2C1=O)c1ccc(C(F)(F)F)cn1 (stereo not drawn) [Example 124, 2-(methoxy(5-(trifluoromethyl)pyridin-2-yl)methyl)-3-methylnaphthalene-1,4-dione] | < 0.05 µM
27 | CC1=C(Cc2cc(C)c(C)nn2)C(=O)c2ccccc2C1=O [Example 13, 2-((5,6-dimethylpyridazin-3-yl)methyl)-3-methylnaphthalene-1,4-dione] | < 0.05 µM
28 | CCCC1=C(Cc2cc(C#N)c(F)cn2)C(=O)c2ccccc2C1=O [Example 110, 2-((1,4-dioxo-3-propyl-1,4-dihydronaphthalen-2-yl)methyl)-5-fluoroisonicotinonitrile] | < 0.05 µM
29 | CCCC1=C(Cc2ccc(C)cn2)C(=O)c2ccccc2C1=O [Example 115, 2-((5-methylpyridin-2-yl)methyl)-3-propylnaphthalene-1,4-dione] | < 0.05 µM
30 | COc1nnc(CC2=C(C)C(=O)c3ccccc3C2=O)cc1C(F)(F)F [Example 17, 2-((6-methoxy-5-(trifluoromethyl)pyridazin-3-yl)methyl)-3-methylnaphthalene-1,4-dione] | < 0.05 µM
31 | CCCC1=C(Cc2cc(C(F)(F)F)c(F)cn2)C(=O)c2ccccc2C1=O [Example 119, 2-((5-fluoro-4-(trifluoromethyl)pyridin-2-yl)methyl)-3-propylnaphthalene-1,4-dione] | < 0.05 µM
32 | CC1=C(Cc2ccc(C)nn2)C(=O)c2ccccc2C1=O [Example 5, 2-methyl-3-((6-methylpyridazin-3-yl)methyl)naphthalene-1,4-dione] | < 0.05 µM
33 | COc1nnc(CC2=C(C)C(=O)c3ccccc3C2=O)cc1C [Example 18, 2-((6-methoxy-5-methylpyridazin-3-yl)methyl)-3-methylnaphthalene-1,4-dione] | > 1 µM
